Source: patent US20070128217A1 (priority 2003, published 2007)

Tests used:
[1] = tested on: recombinant human anti-SARS-CoV antibody 03-018; format: binding; set-up: Binding of antibody 03-018 to linear peptides of the N protein of SARS-CoV Urbani / Binding of antibody 03-018 to looped/cyclic peptides of the N protein of SARS-CoV Urbani: unit not given here
[2] = tested on: control sera (pooled serum of ten healthy LUMC hospital workers; commercial negative donor pooled serum from the Dutch bloodbank); format: binding, human; set-up: Binding of Control serum LUMC to linear peptides / Binding of Control serum Blood-bank to linear peptides / Binding of Control serum LUMC to looped peptides / Binding of Control Serum Blood-Bank to Looped peptides / Binding of Control serum LUMC to linear peptides of the protein M of SARS-CoV Urbani / Binding of Control serum Blood-bank to linear peptides of the protein M of SARS-CoV Urbani / Binding of Control serum LUMC to looped peptides of the protein M of SARS-CoV Urbani / Binding of Control Serum Blood-Bank to Looped peptides of the protein M of SARS-CoV Urbani: unit not given here
[3] = tested on: rabbit serum obtained by immunizing a rabbit with the SARS-CoV strain Frankfurt 1; format: binding; set-up: Binding of a rabbit serum to linear peptides / Binding of a rabbit serum to looped peptides / Rabbit serum linear peptides / Rabbit serum looped peptides / Binding of a rabbit serum to linear peptides of protein N of SARS-CoV Urbani (Rabbit serum linear peptides) / Binding of a rabbit serum to looped/cyclic peptides of protein N of SARS-CoV Urbani (Rabbit serum looped peptides): unit not given here
[4] = tested on: antibodies in sera from SARS patients (sera 1a, 1b, 2, 6, 37, 62, London, SARS-yellow, SARS-green); format: binding, human; set-up: Binding of serum 6 to linear peptides of protein X1 of SARS-CoV Urbani / Binding of serum 37 to linear peptides of protein X1 of SARS-CoV Urbani / Binding of serum 6 to looped/cyclic peptide (PEPSCAN-ELISA) / Binding of serum 37 to looped/cyclic peptide (PEPSCAN-ELISA) / Binding of serum 37 to looped/cyclic peptides of protein X1 of SARS-CoV Urbani / Binding of serum 6 to linear peptides of protein X2 / Binding of serum 37 to linear peptides of protein X2 / Binding of serum 37 to looped/cyclic peptides of protein X2 of SARS-CoV Urbani / Binding of serum 6 to linear peptides of protein M of SARS-CoV Urbani / Binding of serum 37 to linear peptides of protein M of SARS-CoV Urbani / Binding of serum 6 to looped/cyclic peptides of protein M of SARS-CoV Urbani / Binding of serum 37 to looped/cyclic peptides of protein M of SARS-CoV Urbani / Binding of serum 6 to linear peptides of protein X3 of SARS-CoV Urbani / Binding of serum 37 to linear peptides of protein X3 of SARS-CoV Urbani / Binding of serum 37 to looped/cyclic peptides of protein X3 of SARS-CoV Urbani / Binding of serum 6 to linear peptides of protein X4 of SARS-CoV Urbani / Binding of serum 37 to linear peptides of protein X4 of SARS-CoV Urbani / Binding of serum 37 to looped/cyclic peptides of protein X4 of SARS-CoV Urbani / Binding of serum 6 to linear peptides of protein X5 of SARS-CoV Urbani / Binding of serum 37 to linear peptides of protein X5 of SARS-CoV Urbani / Binding of serum 37 to looped/cyclic peptides of protein X5 of SARS-CoV Urbani / Binding of serum 6 to linear peptides of protein N of SARS-CoV Urbani / Binding of serum 37 to linear peptides of protein N of SARS-CoV Urbani / Binding of serum 6 to linear peptide (PEPSCAN-ELISA) / Binding of serum 1a to looped/cyclic peptides of protein N of SARS-CoV Urbani / Binding of serum 1b to looped/cyclic peptides of protein N of SARS-CoV Urbani / Binding of serum 2 to looped/cyclic peptides of protein N of SARS-CoV Urbani / Binding of serum 6 to looped/cyclic peptides of protein N of SARS-CoV Urbani / Binding of serum 37 to looped/cyclic peptides of protein N of SARS-CoV Urbani / Binding of serum 62 to looped/cyclic peptides of protein N of SARS-CoV Urbani / Binding of serum London to looped/cyclic peptides of protein N of SARS-CoV Urbani / Binding of serum SARS-green to looped/cyclic peptides of protein N of SARS-CoV Urbani: unit not given here

Row | Sequence | Binding of antibody 03-018 to linear peptides of the N protein of SARS-CoV Urbani [1] | Binding of antibody 03-018 to looped/cyclic peptides of the N protein of SARS-CoV Urbani [1] | Binding of a rabbit serum to linear peptides of protein N of SARS-CoV Urbani (Rabbit serum linear peptides) [3] | Binding of a rabbit serum to looped/cyclic peptides of protein N of SARS-CoV Urbani (Rabbit serum looped peptides) [3] | Binding of serum 1a to looped/cyclic peptides of protein N of SARS-CoV Urbani [4] | Binding of serum 1b to looped/cyclic peptides of protein N of SARS-CoV Urbani [4] | Binding of serum 2 to looped/cyclic peptides of protein N of SARS-CoV Urbani [4] | Binding of serum 6 to looped/cyclic peptides of protein N of SARS-CoV Urbani [4] | Binding of serum 37 to looped/cyclic peptides of protein N of SARS-CoV Urbani [4] | Binding of serum 62 to looped/cyclic peptides of protein N of SARS-CoV Urbani [4] | Binding of serum London to looped/cyclic peptides of protein N of SARS-CoV Urbani [4] | Binding of serum SARS-green to looped/cyclic peptides of protein N of SARS-CoV Urbani [4] | Binding of serum SARS-yellow to looped/cyclic peptides of protein N of SARS-CoV Urbani [4] | Binding of Control Serum Blood-Bank to Looped peptides [2] | Binding of Control serum Blood-bank to linear peptides [2] | Binding of Control serum LUMC to linear peptides [2] | Binding of Control serum LUMC to looped peptides [2] | other results
1 | AADMDDFSRQLQNSM | 0.2 | 0.2 | 0.2 | 0.3 | 0.3 | 0.2 | 0.3 | 1.6 | 0.5 | 0.3 | 0.2 | 0.2 | 0.2 |  |  |  |  | Control Serum Blood-Bank Looped peptides [2]: 0.4; Control serum Blood-bank linear peptides [2]: 0.8; Control serum LUMC linear peptides [2]: 0.7; Control serum LUMC looped peptides [2]: 0.3; Binding of serum 1a to linear peptides of protein N of SARS-CoV Urbani [4]: 0.3; Binding of serum 1b to linear peptides of protein N of SARS-CoV Urbani [4]: 0.2; Binding of serum 2 to linear peptides of protein N of SARS-CoV Urbani [4]: 0.2; Binding of serum 6 to linear peptides of protein N of SARS-CoV Urbani [4]: 1.2; Binding of serum 37 to linear peptides of protein N of SARS-CoV Urbani [4]: 0.7; Binding of serum 62 to linear peptides of protein N of SARS-CoV Urbani [4]: 0.6; Binding of serum London to linear peptides of protein N of SARS-CoV Urbani [4]: 0.7; Binding of serum SARS-green to linear peptides of protein N of SARS-CoV Urbani [4]: 0.4; Binding of serum SARS-yellow to linear peptides of protein N of SARS-CoV Urbani [4]: 0.7
2 | AEASKKPRQKRTATK | 0.1 | 0.2 | 0.2 | 0.1 | 0.2 | 0.1 | 0.2 | 0.1 | 0.4 | 0.3 | 0.3 | 0.1 | 0.2 | 0.4 | 0.8 | 0.8 | 0.4 | Binding of serum 1a to linear peptide (PEPSCAN-ELISA) [4]: 0.2; Binding of serum 1b to linear peptide (PEPSCAN-ELISA) [4]: 0.1; Binding of serum 2 to linear peptide (PEPSCAN-ELISA) [4]: 0.2; Binding of serum 6 to linear peptide (PEPSCAN-ELISA) [4]: 0.3; Binding of serum 37 to linear peptide (PEPSCAN-ELISA) [4]: 0.7; Binding of serum 62 to linear peptide (PEPSCAN-ELISA) [4]: 0.7; Binding of serum London to linear peptide (PEPSCAN-ELISA) [4]: 0.4; Binding of serum SARS-green to linear peptide (PEPSCAN-ELISA) [4]: 0.4; Binding of serum SARS-yellow to linear peptide (PEPSCAN-ELISA) [4]: 0.7
3 | AEGSRGGSQASSRSS | 0.1 | 0.2 | 0.2 | 0.6 | 0.4 | 0.2 | 0.4 | 0.5 | 0.5 | 0.5 | 0.4 | 0.4 | 0.4 | 0.6 | 0.8 | 0.8 | 0.8 | Binding of serum 1a to linear peptide (PEPSCAN-ELISA) [4]: 0.3; Binding of serum 1b to linear peptide (PEPSCAN-ELISA) [4]: 0.2; Binding of serum 2 to linear peptide (PEPSCAN-ELISA) [4]: 0.3; Binding of serum 6 to linear peptide (PEPSCAN-ELISA) [4]: 0.3; Binding of serum 37 to linear peptide (PEPSCAN-ELISA) [4]: 0.7; Binding of serum 62 to linear peptide (PEPSCAN-ELISA) [4]: 0.7; Binding of serum London to linear peptide (PEPSCAN-ELISA) [4]: 0.5; Binding of serum SARS-green to linear peptide (PEPSCAN-ELISA) [4]: 0.4; Binding of serum SARS-yellow to linear peptide (PEPSCAN-ELISA) [4]: 0.6
4 | AFFGMSRIGMEVTPS | 0.1 | 0.2 | 0.1 | 0.5 | 0.4 | 0.3 | 0.4 | 0.2 | 0.6 | 0.6 | 0.4 | 0.4 | 0.5 |  |  |  |  | Control Serum Blood-Bank Looped peptides [2]: 0.6; Control serum Blood-bank linear peptides [2]: 0.7; Control serum LUMC linear peptides [2]: 0.6; Control serum LUMC looped peptides [2]: 0.8; Binding of serum 1a to linear peptides of protein N of SARS-CoV Urbani [4]: 0.3; Binding of serum 1b to linear peptides of protein N of SARS-CoV Urbani [4]: 0.1; Binding of serum 2 to linear peptides of protein N of SARS-CoV Urbani [4]: 0.2; Binding of serum 6 to linear peptides of protein N of SARS-CoV Urbani [4]: 0.2; Binding of serum 37 to linear peptides of protein N of SARS-CoV Urbani [4]: 0.6; Binding of serum 62 to linear peptides of protein N of SARS-CoV Urbani [4]: 0.7; Binding of serum London to linear peptides of protein N of SARS-CoV Urbani [4]: 0.5; Binding of serum SARS-green to linear peptides of protein N of SARS-CoV Urbani [4]: 0.2; Binding of serum SARS-yellow to linear peptides of protein N of SARS-CoV Urbani [4]: 0.5
5 | RTATKQYNVTQAFGR | 0.1 | 0.2 |  |  |  |  |  |  |  |  |  |  |  | 0.8 | 0.9 | 0.8 | 0.9 | Recognition of the peptide by the rabbit serum [3]: recognized
6 | TLPKGFYAEGSRGGS | 0.1 | 0.2 | 0.5 | 0.3 |  |  |  |  |  |  |  |  |  | 0.5 | 0.7 | 1.2 | 0.5 | 
7 | VLQLPQGTTLPKGFY | 0.1 | 0.3 | 0.2 | 0.4 |  |  |  |  |  |  |  |  |  | 0.7 | 0.7 | 0.6 | 0.8 | 
